Laboratory results from ChEMBL document CHEMBL5291721, “A preclinical secondary pharmacology resource illuminates target-adverse drug reaction associations of marketed drugs” (Nat Commun, 2023).

Columns and labels:
[1] = molecular target: 3',5'-cyclic-AMP phosphodiesterase 4A (Homo sapiens, UniProt P27815); format: functional
[2] = molecular target: T1, 5-hydroxytryptamine receptor 1A (Homo sapiens, UniProt P08908); format: functional, cell-based
T1 sequence (P08908 whole entry): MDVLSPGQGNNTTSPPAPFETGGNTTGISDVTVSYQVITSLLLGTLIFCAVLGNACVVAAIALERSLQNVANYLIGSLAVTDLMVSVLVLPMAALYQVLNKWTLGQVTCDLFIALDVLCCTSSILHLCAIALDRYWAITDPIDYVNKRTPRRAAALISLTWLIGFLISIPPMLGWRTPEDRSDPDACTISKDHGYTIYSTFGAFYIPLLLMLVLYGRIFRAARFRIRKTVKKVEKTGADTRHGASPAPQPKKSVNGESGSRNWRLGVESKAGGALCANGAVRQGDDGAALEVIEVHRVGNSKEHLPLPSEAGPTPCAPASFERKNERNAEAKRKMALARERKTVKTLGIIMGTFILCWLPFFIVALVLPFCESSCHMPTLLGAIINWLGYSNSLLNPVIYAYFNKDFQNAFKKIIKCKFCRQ

[3] = molecular target: Growth hormone secretagogue receptor type 1 (Homo sapiens, UniProt Q92847)
[4] = molecular target: T2, Alpha-2C adrenergic receptor (Homo sapiens, UniProt P18825); format: functional
T2 sequence (P18825 whole entry): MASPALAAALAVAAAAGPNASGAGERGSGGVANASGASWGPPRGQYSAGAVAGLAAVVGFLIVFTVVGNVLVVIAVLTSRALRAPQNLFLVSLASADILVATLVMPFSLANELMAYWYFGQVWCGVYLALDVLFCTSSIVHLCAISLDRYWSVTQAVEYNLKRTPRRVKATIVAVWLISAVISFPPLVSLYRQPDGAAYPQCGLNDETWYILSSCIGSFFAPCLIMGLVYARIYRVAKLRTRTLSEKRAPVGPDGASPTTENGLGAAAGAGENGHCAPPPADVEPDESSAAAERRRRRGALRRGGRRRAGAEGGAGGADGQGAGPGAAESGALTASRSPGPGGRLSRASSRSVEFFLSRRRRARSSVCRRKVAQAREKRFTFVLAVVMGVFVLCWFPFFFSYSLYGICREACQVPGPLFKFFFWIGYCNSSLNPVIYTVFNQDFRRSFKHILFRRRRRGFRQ

[5] = molecular target: Adenosine receptor A2a (Homo sapiens, UniProt P29274)
[6] = molecular target: Melanocortin receptor 3 (Homo sapiens, UniProt P41968)
[7] = molecular target: T3, Adenosine receptor A1 (Homo sapiens, UniProt P30542)
T3 sequence (P30542 whole entry): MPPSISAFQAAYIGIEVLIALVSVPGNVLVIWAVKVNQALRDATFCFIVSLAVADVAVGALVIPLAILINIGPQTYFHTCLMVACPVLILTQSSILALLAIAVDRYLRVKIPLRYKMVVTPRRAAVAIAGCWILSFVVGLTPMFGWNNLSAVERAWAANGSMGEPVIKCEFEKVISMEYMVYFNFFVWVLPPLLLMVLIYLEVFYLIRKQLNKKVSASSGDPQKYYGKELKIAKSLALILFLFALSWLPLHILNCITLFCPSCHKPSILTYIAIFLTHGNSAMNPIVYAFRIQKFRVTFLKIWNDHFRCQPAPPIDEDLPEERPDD

[8] = molecular target: 5-hydroxytryptamine receptor 2B (Homo sapiens, UniProt P41595); format: functional, cell-based
[9] = molecular target: 3',5'-cyclic-AMP phosphodiesterase 4D (Homo sapiens, UniProt Q08499); format: functional
[10] = molecular target: T4, Alpha-1A adrenergic receptor (Homo sapiens, UniProt P35348); format: functional, cell-based
T4 sequence (P35348 whole entry): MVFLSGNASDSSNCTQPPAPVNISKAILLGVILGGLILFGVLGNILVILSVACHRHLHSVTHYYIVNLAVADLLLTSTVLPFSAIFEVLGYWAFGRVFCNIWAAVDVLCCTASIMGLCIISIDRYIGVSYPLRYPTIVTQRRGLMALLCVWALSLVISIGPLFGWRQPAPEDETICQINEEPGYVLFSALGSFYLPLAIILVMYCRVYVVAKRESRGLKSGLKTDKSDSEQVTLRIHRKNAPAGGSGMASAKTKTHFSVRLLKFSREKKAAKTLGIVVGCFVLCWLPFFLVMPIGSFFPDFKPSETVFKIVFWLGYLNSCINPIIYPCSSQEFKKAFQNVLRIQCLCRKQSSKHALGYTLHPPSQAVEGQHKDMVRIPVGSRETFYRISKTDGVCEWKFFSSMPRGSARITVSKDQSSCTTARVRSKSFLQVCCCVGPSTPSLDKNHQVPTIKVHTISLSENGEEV
Also: assay procedure not described here.

Chain of 3',5'-cyclic-AMP phosphodiesterase 4A (P27815 whole entry): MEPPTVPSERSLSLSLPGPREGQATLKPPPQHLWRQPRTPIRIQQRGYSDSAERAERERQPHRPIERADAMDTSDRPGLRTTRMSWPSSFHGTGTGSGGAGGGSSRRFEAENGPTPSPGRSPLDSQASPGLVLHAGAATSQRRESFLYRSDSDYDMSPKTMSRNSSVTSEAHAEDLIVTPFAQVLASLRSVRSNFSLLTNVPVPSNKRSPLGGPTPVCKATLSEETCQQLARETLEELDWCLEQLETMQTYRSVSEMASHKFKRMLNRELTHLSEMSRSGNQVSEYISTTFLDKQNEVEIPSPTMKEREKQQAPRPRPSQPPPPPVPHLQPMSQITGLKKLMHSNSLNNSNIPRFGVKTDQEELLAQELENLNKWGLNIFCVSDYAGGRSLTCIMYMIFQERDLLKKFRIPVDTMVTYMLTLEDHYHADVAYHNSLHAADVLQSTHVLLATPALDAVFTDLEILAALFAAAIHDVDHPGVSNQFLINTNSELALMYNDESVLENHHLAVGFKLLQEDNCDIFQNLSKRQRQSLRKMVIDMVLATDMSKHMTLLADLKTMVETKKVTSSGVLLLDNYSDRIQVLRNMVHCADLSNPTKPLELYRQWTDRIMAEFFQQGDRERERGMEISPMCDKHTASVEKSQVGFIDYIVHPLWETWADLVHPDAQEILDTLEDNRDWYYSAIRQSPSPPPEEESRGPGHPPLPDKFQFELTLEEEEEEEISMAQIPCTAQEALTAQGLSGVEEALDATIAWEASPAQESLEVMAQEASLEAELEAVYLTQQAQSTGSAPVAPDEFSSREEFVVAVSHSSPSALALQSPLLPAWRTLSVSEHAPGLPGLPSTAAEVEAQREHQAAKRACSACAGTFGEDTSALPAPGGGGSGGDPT
Chain of Adenosine receptor A2a (P29274 whole entry): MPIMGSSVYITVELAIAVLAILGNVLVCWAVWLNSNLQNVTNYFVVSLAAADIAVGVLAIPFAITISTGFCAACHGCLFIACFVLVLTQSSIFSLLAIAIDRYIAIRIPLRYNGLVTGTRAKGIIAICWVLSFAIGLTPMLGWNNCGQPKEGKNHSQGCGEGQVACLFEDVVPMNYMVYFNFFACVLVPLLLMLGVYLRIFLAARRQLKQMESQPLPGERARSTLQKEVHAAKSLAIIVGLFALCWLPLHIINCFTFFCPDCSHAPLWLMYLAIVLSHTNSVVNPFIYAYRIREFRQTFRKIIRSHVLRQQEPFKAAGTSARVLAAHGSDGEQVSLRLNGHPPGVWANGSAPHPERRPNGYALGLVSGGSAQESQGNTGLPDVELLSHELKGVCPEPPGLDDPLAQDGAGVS
Chain of Melanocortin receptor 3 (P41968 whole entry): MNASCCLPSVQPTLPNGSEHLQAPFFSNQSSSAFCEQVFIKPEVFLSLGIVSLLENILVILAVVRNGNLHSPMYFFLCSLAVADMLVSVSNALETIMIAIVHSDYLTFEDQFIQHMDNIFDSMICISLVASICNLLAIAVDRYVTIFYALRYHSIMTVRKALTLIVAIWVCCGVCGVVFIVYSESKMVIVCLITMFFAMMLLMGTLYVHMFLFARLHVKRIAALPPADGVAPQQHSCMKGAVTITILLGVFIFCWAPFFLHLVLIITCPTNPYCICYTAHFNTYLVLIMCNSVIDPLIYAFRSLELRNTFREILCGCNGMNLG
Chain of 3',5'-cyclic-AMP phosphodiesterase 4D (Q08499 whole entry): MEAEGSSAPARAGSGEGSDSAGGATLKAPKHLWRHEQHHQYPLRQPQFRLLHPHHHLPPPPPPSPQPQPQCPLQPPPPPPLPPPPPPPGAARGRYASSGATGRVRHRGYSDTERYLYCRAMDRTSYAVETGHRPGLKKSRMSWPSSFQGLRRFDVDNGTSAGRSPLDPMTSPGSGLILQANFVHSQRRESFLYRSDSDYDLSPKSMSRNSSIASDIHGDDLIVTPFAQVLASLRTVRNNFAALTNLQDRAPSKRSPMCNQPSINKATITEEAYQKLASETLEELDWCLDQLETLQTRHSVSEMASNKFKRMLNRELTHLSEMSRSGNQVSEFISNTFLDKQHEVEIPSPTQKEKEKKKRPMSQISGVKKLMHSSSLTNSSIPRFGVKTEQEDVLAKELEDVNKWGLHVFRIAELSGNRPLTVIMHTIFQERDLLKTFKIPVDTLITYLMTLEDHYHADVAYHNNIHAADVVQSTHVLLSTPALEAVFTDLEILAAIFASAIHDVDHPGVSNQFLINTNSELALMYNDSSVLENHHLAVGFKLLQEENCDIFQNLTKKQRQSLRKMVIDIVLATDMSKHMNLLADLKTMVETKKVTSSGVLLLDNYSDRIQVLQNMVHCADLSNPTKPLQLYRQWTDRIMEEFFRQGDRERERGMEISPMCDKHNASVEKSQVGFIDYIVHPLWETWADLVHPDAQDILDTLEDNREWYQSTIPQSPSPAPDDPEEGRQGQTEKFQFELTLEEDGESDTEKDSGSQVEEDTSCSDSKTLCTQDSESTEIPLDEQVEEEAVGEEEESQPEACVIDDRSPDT
Chain of 5-hydroxytryptamine receptor 2B (P41595 whole entry): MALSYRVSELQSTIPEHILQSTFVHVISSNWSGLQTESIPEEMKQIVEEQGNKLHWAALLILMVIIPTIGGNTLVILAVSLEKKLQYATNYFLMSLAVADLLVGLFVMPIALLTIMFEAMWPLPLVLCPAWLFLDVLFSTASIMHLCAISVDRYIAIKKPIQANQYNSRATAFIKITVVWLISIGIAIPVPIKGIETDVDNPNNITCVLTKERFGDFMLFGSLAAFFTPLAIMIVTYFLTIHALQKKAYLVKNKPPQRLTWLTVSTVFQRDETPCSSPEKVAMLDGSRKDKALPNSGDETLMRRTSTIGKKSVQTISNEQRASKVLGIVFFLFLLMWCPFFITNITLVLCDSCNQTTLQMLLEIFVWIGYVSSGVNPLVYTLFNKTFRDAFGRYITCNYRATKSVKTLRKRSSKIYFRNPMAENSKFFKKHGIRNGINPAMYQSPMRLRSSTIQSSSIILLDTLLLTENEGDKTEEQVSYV
Chain of Growth hormone secretagogue receptor type 1 (Q92847 whole entry): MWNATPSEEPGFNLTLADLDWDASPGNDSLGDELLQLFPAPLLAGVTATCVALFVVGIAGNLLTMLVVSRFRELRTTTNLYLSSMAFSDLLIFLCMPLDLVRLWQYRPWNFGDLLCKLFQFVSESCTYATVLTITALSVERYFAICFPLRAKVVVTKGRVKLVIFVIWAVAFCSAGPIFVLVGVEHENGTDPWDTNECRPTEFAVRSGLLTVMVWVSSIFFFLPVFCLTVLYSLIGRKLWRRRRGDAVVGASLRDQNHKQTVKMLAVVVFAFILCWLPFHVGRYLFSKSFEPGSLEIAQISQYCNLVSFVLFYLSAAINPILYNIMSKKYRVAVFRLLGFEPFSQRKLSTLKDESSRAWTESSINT

| SMILES | AC50 [1] | AC50 [2] | AC50 [3] | AC50 [4] | AC50 [5] | AC50 [6] | AC50 [7] | AC50 [8] | AC50 [9] | AC50 [10] |
| --- | --- | --- | --- | --- | --- | --- | --- | --- | --- | --- |
| CCCCCCCC(=O)N[C@H](CN1CCCC1)[C@H](O)c1ccc2c(c1)OCCO2 | > 30 µM |  |  |  |  |  |  |  |  |  |
| C[C@]12CC[C@H](O)CC1=CC[C@@H]1[C@@H]2CC[C@]2(C)C(c3cccnc3)=CC[C@@H]12 [ABIRATERONE] |  | > 10 µM | > 30 µM | > 10 µM | > 30 µM | > 30 µM | > 30 µM | > 10 µM | > 30 µM |  |
| CC(=O)OCC[N+](C)(C)C [ACETYLCHOLINE] | > 30 µM | 0.15 µM | > 30 µM | > 10 µM | > 30 µM | > 30 µM | > 30 µM | > 10 µM | > 30 µM | > 30 µM |
| O=C(Nc1nc(-c2cc(Cl)cs2)c(N2CCN(C3CCCCC3)CC2)s1)c1cnc(N2CCC(C(=O)O)CC2)c(Cl)c1 [AVATROMBOPAG] | > 30 µM |  | > 10 µM | > 10 µM | > 10 µM | > 10 µM | > 10 µM |  | > 10 µM |  |
| CN(C)C(=O)Oc1cc(OC(=O)N(C)C)cc(C(O)CNC(C)(C)C)c1 (centres undefined) [BAMBUTEROL] |  |  | > 30 µM |  | > 30 µM | > 30 µM | > 30 µM |  |  |  |
| C[C@H]1C[C@H]2[C@@H]3CCC4=CC(=O)C=C[C@]4(C)[C@@]3(Cl)[C@@H](O)C[C@]2(C)[C@@]1(O)C(=O)CO [BECLOMETHASONE] |  |  | > 30 µM | > 10 µM | > 30 µM | > 30 µM | > 30 µM |  | > 30 µM |  |
| CO[C@@]1(NC(=O)CSCC#N)C(=O)N2C(C(=O)O)=C(CSc3nnnn3C)CS[C@@H]21 [CEFMETAZOLE] | > 30 µM | > 30 µM |  | > 30 µM |  |  |  | > 30 µM | > 30 µM |  |
| NS(=O)(=O)c1cc(C2(O)NC(=O)c3ccccc32)ccc1Cl (centres undefined) [CHLORTHALIDONE] |  | > 10 µM | > 10 µM | > 10 µM | > 10 µM | > 10 µM | > 10 µM | > 10 µM | > 30 µM |  |
| CC[C@H]1OC(=O)[C@H](C)[C@@H](O[C@H]2C[C@@](C)(OC)[C@@H](O)[C@H](C)O2)[C@H](C)[C@@H](O[C@@H]2O[C@H](C)C[C@H](N(C)C)[C@H]2O)[C@](C)(OC)C[C@@H](C)C(=O)[C@H](C)[C@@H](O)[C@]1(C)O [CLARITHROMYCIN] | > 30 µM | > 30 µM | > 30 µM | > 30 µM | > 30 µM | > 30 µM | > 30 µM | > 30 µM | > 30 µM | > 30 µM |
| Oc1c(I)cc(Cl)c2cccnc12 [CLIOQUINOL] | > 30 µM | > 30 µM |  | > 30 µM |  |  |  | > 30 µM |  |  |
| C[C@@H]1CCC[C@H](C)N1NC(=O)c1ccc(Cl)c(S(N)(=O)=O)c1 [CLOPAMIDE] |  | > 30 µM | > 30 µM | > 30 µM | > 30 µM | > 30 µM | > 30 µM | > 30 µM | > 30 µM |  |
| COc1ccc2c(c1)[C@]13CCCC[C@@H]1[C@H](C2)N(C)CC3 [DEXTROMETHORPHAN] |  | > 10 µM | > 30 µM | 11 µM | > 30 µM | > 30 µM | > 30 µM | > 10 µM | > 30 µM |  |
| O=c1oc2ccccc2c(O)c1Cc1c(O)c2ccccc2oc1=O [DICUMAROL] |  | > 10 µM | > 10 µM | > 10 µM | > 10 µM | > 10 µM | > 10 µM | > 10 µM | 6.3 µM |  |
| O=C(O)CSCC(=O)NC1CCSC1=O (centres undefined) [ERDOSTEINE] |  | > 30 µM | > 30 µM | > 30 µM | > 30 µM | > 30 µM | > 30 µM | > 30 µM | > 30 µM |  |
| COc1cccc(N(C)C(=S)Oc2ccc3c(c2)CCCC3)n1 [LIRANAFTATE] |  | > 30 µM | > 30 µM | > 30 µM | > 30 µM | > 30 µM | > 30 µM | > 30 µM | > 30 µM |  |
| C#C[C@]1(O)CC[C@H]2[C@@H]3CCc4cc(OC)ccc4[C@H]3CC[C@@]21C [MESTRANOL] |  | > 10 µM | > 10 µM | > 30 µM | > 30 µM | > 10 µM | > 30 µM | > 10 µM | > 30 µM |  |
| CCC(=O)O[C@@H]1CC(=O)O[C@H](C)C/C=C/C=C/[C@H](OC(C)=O)[C@H](C)C[C@H](CC=O)[C@H](O[C@@H]2O[C@H](C)[C@@H](O[C@H]3C[C@@](C)(OC(C)=O)[C@@H](OC(=O)CC)[C@H](C)O3)[C@H](N(C)C)[C@H]2O)[C@H]1OC [MIOCAMYCIN] | > 30 µM |  |  |  |  |  |  |  |  |  |
| N=C(N)c1ccc2cc(OC(=O)c3ccc(N=C(N)N)cc3)ccc2c1 [NAFAMOSTAT] |  | > 30 µM | 21 µM | 3.2 µM | > 30 µM | > 30 µM | > 30 µM | 29 µM | > 30 µM |  |
| O=C(O)c1cc(O)c2c3nc4ccccc4oc-3cc(=O)c2n1 [PIRENOXINE] |  | > 30 µM | > 30 µM | 2.7 µM | > 30 µM | > 30 µM | > 30 µM | > 30 µM | > 30 µM |  |
| NS(=O)(=O)c1cc(C(=O)O)cc(N2CCCC2)c1Oc1ccccc1 [PIRETANIDE] |  | > 30 µM | > 30 µM | > 30 µM | > 30 µM | > 30 µM | > 30 µM | > 30 µM | > 30 µM |  |
| CNCCCC1c2ccccc2C=Cc2ccccc21 [PROTRIPTYLINE] |  | > 10 µM | > 10 µM |  | > 10 µM | > 10 µM | > 10 µM | 3.8 µM | > 30 µM |  |
| CC(C)=CCOc1ccc(/C=C/C(=O)c2ccc(OCC=C(C)C)cc2OCC(=O)O)cc1 [SOFALCONE] |  | > 30 µM | > 30 µM | > 30 µM | > 30 µM | > 30 µM | > 30 µM | > 30 µM | > 30 µM |  |
| O=C(CCCN1CCC2(CC1)C(=O)NCN2c1ccccc1)c1ccc(F)cc1 [SPIPERONE] |  |  | > 10 µM | 0.369 µM | > 30 µM | > 30 µM | > 30 µM |  | > 30 µM | 0.081 µM |
| CN(C)c1cc(NC(=O)CNC(C)(C)C)c(O)c2c1C[C@H]1C[C@H]3[C@H](N(C)C)C(O)=C(C(N)=O)C(=O)[C@@]3(O)C(O)=C1C2=O [TIGECYCLINE] |  | > 30 µM | > 30 µM | > 30 µM | > 30 µM | > 30 µM | > 30 µM | > 30 µM | > 30 µM |  |
| OCCN1CCN(CC/C=C2/c3ccccc3Sc3ccc(Cl)cc32)CC1 [ZUCLOPENTHIXOL] |  | > 10 µM | > 10 µM | 0.16 µM | > 10 µM | > 10 µM | > 10 µM | 0.92 µM | > 10 µM |  |
